Measurements as given in patent US20120165319A1, “INHIBITORS OF INTERLEUKIN-1 BETA CONVERTING ENZYME” (VERTEX PHARMACEUTICALS INCORPORATED, priority 1995, published 2012).
Structures can show the parent of a compound that is named as a salt.

Legend:
ICE = biological target: T1, ICE (Homo sapiens, UniProt P29466); assay: Enzyme assay with UV-visible substrate (visible ICE assay, Succinyl-Tyr-Val-Ala-Asp-pNitroanilide); format: biochemical
T1 sequence (P29466 120-297 limits assumed): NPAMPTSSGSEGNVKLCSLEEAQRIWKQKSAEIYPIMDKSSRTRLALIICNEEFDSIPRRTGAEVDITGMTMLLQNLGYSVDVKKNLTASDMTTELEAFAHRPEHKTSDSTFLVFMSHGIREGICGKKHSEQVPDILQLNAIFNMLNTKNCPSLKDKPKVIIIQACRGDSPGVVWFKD
T1 sequence (P29466 317-404 limits assumed): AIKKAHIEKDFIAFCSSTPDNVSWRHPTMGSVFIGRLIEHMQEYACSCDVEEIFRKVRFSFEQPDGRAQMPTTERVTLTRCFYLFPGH
Description: 1. Enzyme Assay with Uv-Visible Substrate
This assay is run using an Succinyl-Tyr-Val-Ala-Asp-pNitroanilide substrate. Synthesis of analogous substrates is described by L. A. Reiter (Int. J. Peptide Protein Res. 12, 87-96 (1994)). The assay mixture contains:
The visible ICE assay is run in a 96-well microtiter plate. Buffer, ICE and DMSO (if inhibitor is present) are added to the wells in the order listed. The components are left to incubate at room temperature for 15 minutes starting at the time that all components are present in all wells. The microtiter plate reader is set to incubate at 37° C. After the 15 minute incubation, substrate is added directly to the wells and the reaction is monitored by following the release of the chromophore (pNA) at 405-603 nm at 37° C. for 20 minutes. A linear fit of the data is performed and the rate is calculated in mOD/min. DMSO is only present during experiments involving inhibitors, buffer is used to make up the volume to 100 μl in the other experiments.
For determination of enzyme inhibition constants (Ki) or the mode of inhibition (competitive, uncompetitive or noncompetitive), the rate data determined in the enzyme assays at varying inhibitor concentrations are computer-fit to standard enzyme kinetic equations (see I. H. Segel, Enzyme Kinetics, Wiley-Interscience, 1975).

[1] = test system: IL-1β, human peripheral blood mononuclear cells (PBMC); assay: PBMC cell assay: IL-1β assay with human PBMC or enriched adherent mononuclear cells, LPS-stimulated; format: cell-based
Source text: IL-1β Assay with a Mixed Population of Human Peripheral Blood Mononuclear Cells (PBMC) or Enriched Adherent Mononuclear Cells
Processing of pre-IL-1β by ICE can be measured in cell culture using a variety of cell sources. Human PBMC obtained from healthy donors provides a mixed population of lymphocyte subtypes and mononuclear cells that produce a spectrum of interleukins and cytokines in response to many classes of physiological stimulators. Adherent mononuclear cells from PBMC provides an enriched source of normal monocytes for selective studies of cytokine production by activated cells.
An initial dilution series of test compound in DMSO or ethanol is prepared, with a subsequent dilution into RPMI-10% FBS media (containing 2 mM L-glutamine, 10 mM HEPES, 50 U and 50 ug/ml pen/strep) respectively to yield drugs at 4× the final test concentration containing 0.4% DMSO or 0.4% ethanol. The final concentration of DMSO is 0.1% for all drug dilutions. A concentration titration which brackets the apparent Ki for a test compound determined in an ICE inhibition assay is generally used for the primary compound screen.
Generally 5-6 compound dilutions are tested and the cellular component of the assay is performed in duplicate, with duplicate ELISA determinations on each cell culture supernatant.
PBMC Isolation and IL-1 Assay:
Buffy coat cells isolated from one pint human blood (yielding 40-45 ml final volume plasma plus cells) are diluted with media to 80 ml and LeukoPREP separation tubes (Becton Dickinson) are each overlaid with 10 ml of cell suspension. After 15 min centrifugation at 1500-1800×g, the plasma/media layer is aspirated and then the mononuclear cell layer is collected with a Pasteur pipette and transferred to a 15 ml conical centrifuge tube (Corning). Media is added to bring the volume to 15 ml, gently mix the cells by inversion and centrifuge at 300×g for 15 min. Resuspend the PBMC pellet in a small volume of media, count cells and adjust to 6×10^6 cells/ml.
For the cellular assay, 1.0 ml of the cell suspension is added to each well of a 24-well flat bottom tissue culture plate (Corning), 0.5 ml test compound dilution and 0.5 ml LPS solution (Sigma #L-3012; 20 ng/ml solution prepared in complete RPMI media; final LPS concentration 5 ng/ml). The 0.5 ml additions of test compound and LPS are usually sufficient to mix the contents of the wells. Three control mixtures are run per experiment, with either LPS alone, solvent vehicle control, and/or additional media to adjust the final culture volume to 2.0 ml. The cell cultures are incubated for 16-18 hr at 37° C. in the presence of 5% CO2.
At the end of the incubation period, cells are harvested and transferred to 15 ml conical centrifuge tubes. After centrifugation for 10 min at 200×g, supernatants are harvested and transferred to 1.5 ml Eppendorf tubes. It may be noted that the cell pellet may be utilized for a biochemical evaluation of pre-IL-1β and/or mature IL-1β content in cytosol extracts by western blotting or ELISA with pre-IL-1β specific antisera.
Isolation of Adherent Mononuclear Cells:
PBMC are isolated and prepared as described above. Media (1.0 ml) is first added to wells followed by 0.5 ml of the PBMC suspension. After a one hour incubation, plates are gently shaken and nonadherent cells aspirated from each well. Wells are then gently washed three times with 1.0 ml of media and final resuspended in 1.0 ml media. The enrichment for adherent cells generally yields 2.5−3.0×10^5 cells per well. The addition of test compounds, LPS, cell incubation conditions and processing of supernatants proceeds as described above.
We have used Quantikine kits (R&D Systems) for measurement of mature IL-1β. Assays are performed according to the manufacturer's directions. Mature IL-1β levels of about 1-3 ng/ml in both PBMC and adherent mononuclear cell positive controls are observed. […]

[2] = Homo sapiens, PBMC, * = values obtained upon reassay

SMILES	Ki (ICE; Table 5) [nM]	Ki (ICE; Table 17) [nM]	IC50 [1, 2] [nM]	IC50 ([1]; * = values obtained upon reassay) [nM]	IC50 ([1]; Homo sapiens, PBMC, Table 17) [nM]
O=C[C@H](CC(=O)O)NC(=O)[C@@H]1CCCN2C(=O)CC[C@H](NC(=O)c3ccc4ccccc4c3O)C(=O)N12 [Compound 449]	12		1500		
COc1cccc(C(=O)N[C@H]2CCC(=O)N3CCC[C@@H](C(=O)N[C@H](C=O)CC(=O)O)N3C2=O)c1 [Compound 451]	4		1800		
O=C[C@H](CC(=O)O)NC(=O)[C@@H]1CCCN2C(=O)CC[C@H](NC(=O)c3cccnc3)C(=O)N12 [Compound 454]	45		2500		
O=C[C@H](CC(=O)O)NC(=O)[C@@H]1CCCN2C(=O)CC[C@H](NC(=O)c3ccc(F)c(F)c3)C(=O)N12 [Compound 458]	20		2900		
O=C[C@H](CC(=O)O)NC(=O)[C@@H]1CCCN2C(=O)CC[C@H](NC(=O)c3ccc(F)c(Cl)c3)C(=O)N12 [Compound 459]	5		1800		
O=C[C@H](CC(=O)O)NC(=O)[C@@H]1CCCN2C(=O)CC[C@H](NC(=O)c3ccc(F)cc3)C(=O)N12 [Compound 463]	14		2400	2800	
O=C[C@H](CC(=O)O)NC(=O)[C@@H]1CCCN2C(=O)CC[C@H](NC(=O)c3ccc(Cl)c(Cl)c3)C(=O)N12 [Compound 464]	2.5		1000		
O=C[C@H](CC(=O)O)NC(=O)[C@@H]1CCCN2C(=O)CC[C@H](NC(=O)c3cc4ccccc4o3)C(=O)N12 [Compound 467]	11		1900		
O=C[C@H](CC(=O)O)NC(=O)[C@@H]1CCCN2C(=O)CC[C@H](NC(=O)c3ccc(CO)cc3)C(=O)N12 [Compound 479]	15		900		
CC(=O)Nc1ccc(C(=O)N[C@H]2CCC(=O)N3CCC[C@@H](C(=O)N[C@H](C=O)CC(=O)O)N3C2=O)cc1NC(C)=O [Compound 480]	25		2300		
COC(=O)Nc1ccc(C(=O)N[C@H]2CCC(=O)N3CCC[C@@H](C(=O)N[C@H](C=O)CC(=O)O)N3C2=O)cc1 [Compound 490]	4.3		1000		
O=C[C@H](CC(=O)O)NC(=O)[C@@H]1CCCN2C(=O)CC[C@H](NC(=O)c3ccc(OC(=O)c4ccccc4)cc3)C(=O)N12 [Compound 491]	5		2500		
CNCC(=O)N1C[C@H](NC(=O)c2cccc3ccccc23)C(=O)N(CC(=O)N[C@H](C=O)CC(=O)O)c2ccccc21 [Compound 650, (3S)-3-[(3S)-2-Oxo-3-(1-naphthoyl)amino-5-(2-methylamino)acetyl-2,3,4,5-tetrahydro-1H-1,5-benzodiazepine-1-acetylamino]-4-oxo-butyric acid]		550			4000

Further lines, with some results ahead:

Ki (ICE; Table 5) [nM]	Ki (ICE; Table 17) [nM]	SMILES	IC50 [1, 2] [nM]	IC50 ([1]; * = values obtained upon reassay) [nM]	IC50 ([1]; Homo sapiens, PBMC, Table 17) [nM]
475		CC(C)CC(=O)N1C[C@H](NC(=O)c2ccccc2)C(=O)N(CC(=O)N[C@H](C=O)CC(=O)O)c2ccccc21 [Compound 605f, (3S)-3-[(3S)-2-Oxo-3-benzoylamino-5-(3-methylbutyryl)-2,3,4,5-tetrahydro-1H-1,5-benzodiazepin-1-acetylamino]-4-oxo-butyric acid]	12500		
165		CC(=O)CC(=O)N1C[C@H](NC(=O)c2ccccc2)C(=O)N(CC(=O)N[C@H](C=O)CC(=O)O)c2ccccc21 [Compound 605g, (3S)-3-[(3S)-2-Oxo-3-benzoylamino-5-acetoacetyl-2,3,4,5-tetrahydro-1H-1,5-benzodiazepin-1-acetylamino]-4-oxo-butyric acid]	22500		
460		COC(=O)C(=O)N1C[C@H](NC(=O)c2ccccc2)C(=O)N(CC(=O)N[C@H](C=O)CC(=O)O)c2ccccc21 [Compound 605h, (3S)-3-[(3S)-2-oxo-3-benzoylamino-5-methyloxalkyl-2,3,4,5-tetrahydro-1H-1,5-benzodiazepin-1-acetylamino]-4-oxo-butyric acid]	> 25000		
680		CC(=O)C(=O)N1C[C@H](NC(=O)c2ccccc2)C(=O)N(CC(=O)N[C@H](C=O)CC(=O)O)c2ccccc21 [Compound 605i, (3S)-3-[(3S)-2-Oxo-3-benzoylamino-5-acetylcarbonyl-2,3,4,5-tetrahydro-1H-1,5-benzodiazepin-1-acetylamino]-4-oxo-butyric acid]	> 20000		
650		CS(=O)(=O)N1C[C@H](NC(=O)c2ccccc2)C(=O)N(CC(=O)N[C@H](C=O)CC(=O)O)c2ccccc21 [Compound 605m, (3S)-3-[(3S)-2-Oxo-3-benzoylamino-5-methanesulfonyl-2,3,4,5-tetrahydro-1H-1,5-benzodiazepin-1-acetylamino]-4-oxo-butyric acid]	20000		
150		O=C[C@H](CC(=O)O)NC(=O)CN1C(=O)[C@@H](NC(=O)c2ccccc2)CN(C(=O)Cc2ccncc2)c2ccccc21 [Compound 605s, (3S)-3-[(3S)-2-Oxo-3-benzoylamino-5-(4-pyridylacetyl)-2,3,4,5-tetrahydro-1H-1,5-benzodiazepin-1-acetylamino]-4-oxo-butyric acid]	6000		
1100		O=CC(CC(=O)O)NC(=O)CN1C(=O)[C@@H](NCc2ccccc2)CN(C(=O)CCc2ccccc2)c2ccccc21 (stereo partly drawn) [Compound 605v, (3S)3-[(3S)2-Oxo-3-benzylamino-5-(3-phenylpropionyl)-2,3,4,5-tetrahydro-1H-1,5-benzodiazepin-1-acetylamino]-4-oxo-butyric acid trifluoroacetic acid salt]	> 30000		
114		O=C(O)C[C@H](NC(=O)CN1C(=O)[C@@H](NC(=O)CCc2ccccc2)CN(C(=O)CCc2ccccc2)c2ccccc21)C(=O)c1nc2cc(Cl)cc(Cl)c2o1 [Compound 609a, (3S)-3-[(3S)-2-Oxo-3-(3-phenylpropionylamino)-5-(3-phenylpropionyl)-2,3,4,5-tetrahydro-1H-1,5-benzodiazepin-1-acetylamino]-4-(5,7-dichlorobenzoxazol-2-yl)-4-oxo-butyric acid]	> 30000		
27		CC(=O)N1C[C@H](NC(=O)c2ccccc2)C(=O)N(CC(=O)N[C@@H](CC(=O)O)C(=O)c2nc3cc(Cl)cc(Cl)c3o2)c2ccccc21 [Compound 609b, (3S)-3-[(3S)-2-Oxo-3-benzoylamino-5-acetyl-2,3,4,5-tetrahydro-1H-1,5-benzodiazepin-1-acetylamino]-4-(5,7-dichlorobenzoxazol-2-yl)-4-oxo-butyric acid]	> 20000		
